Experimental data from ChEMBL document CHEMBL5053528, “Discovery of 2-(Ortho-Substituted Benzyl)-Indole Derivatives as Potent and Orally Bioavailable RORγ Agonists with Antitumor Activity” (J Med Chem, 2021).

Experiments:
[1] = Microsomal stability in rat liver microsomes assessed as half life; assay type: ADME, Microsome
[2] = Microsomal stability in human liver microsomes assessed as half life; assay type: ADME, Microsome
[3] = biological target: T1, Nuclear receptor ROR-gamma (Homo sapiens, UniProt P51449); assay: Agonist activity at N-terminal GST tagged human RORgamma LBD using fluorescein-D22 as coactivator incubated for 60 mins by Lanthascreen TR-FRET assay
T1 sequence (P51449 whole entry): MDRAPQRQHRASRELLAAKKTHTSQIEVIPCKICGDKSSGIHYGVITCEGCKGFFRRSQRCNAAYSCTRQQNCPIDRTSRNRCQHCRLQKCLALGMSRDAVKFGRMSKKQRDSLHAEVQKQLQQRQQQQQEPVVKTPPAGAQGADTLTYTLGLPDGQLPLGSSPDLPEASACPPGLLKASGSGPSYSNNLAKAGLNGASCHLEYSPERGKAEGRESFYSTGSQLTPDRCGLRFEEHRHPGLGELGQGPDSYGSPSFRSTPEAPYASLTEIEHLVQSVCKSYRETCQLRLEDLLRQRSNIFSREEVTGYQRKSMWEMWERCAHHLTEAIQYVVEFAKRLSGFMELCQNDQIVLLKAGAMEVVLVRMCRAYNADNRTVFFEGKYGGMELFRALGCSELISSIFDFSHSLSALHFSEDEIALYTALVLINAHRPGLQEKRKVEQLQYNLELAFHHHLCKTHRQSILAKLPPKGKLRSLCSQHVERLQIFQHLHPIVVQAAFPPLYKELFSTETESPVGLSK

[4] = biological target: T1, Nuclear receptor ROR-gamma; assay: Agonist activity at human RORgamma in cytostim stimulated human PBMC cells assessed as increase in differentiation of TH17 cells by measuring IL-17 production preincubated with cytostim for 72 hrs by ELISA; assay type: cell-based
[5] = biological target: T2, Nuclear receptor ROR-gamma (Homo sapiens) (UniProt P51449); assay: Partial agonist activity at human RORgamma in cytostim stimulated human PBMC cells assessed as increase in IL-17 production by measuring maximal efficacy preincubated with cytostim for 72 hrs by ELISA relative to control; assay type: cell-based; details: filed as partial agonist
T2 sequence (whole entry): T1 sequence (P51449 whole entry)

[6] = biological target: T1, Nuclear receptor ROR-gamma; assay: Partial agonist activity at human RORgamma in cytostim stimulated human PBMC cells assessed as […] in differentiation of TH17 cells by measuring IL-17 production preincubated with cytostim for 72 hrs by ELISA; assay type: cell-based
[7] = biological target: T1, Nuclear receptor ROR-gamma; assay: Antagonist activity at N-terminal GST tagged human RORgamma LBD using fluorescein-D22 as coactivator incubated for 60 mins by Lanthascreen TR-FRET assay
[8] = biological target: T1, Nuclear receptor ROR-gamma; assay: Antagonist activity at human RORgamma in cytostim stimulated human PBMC cells assessed as decrease in differentiation of TH17 cells by measuring IL-17 production preincubated with cytostim for 72 hrs by ELISA; assay type: cell-based
[9] = biological target: T2, Nuclear receptor ROR-gamma (Homo sapiens); assay: Inverse agonist activity at human RORgamma in cytostim stimulated human PBMC cells assessed as […] in IL-17 production by measuring maximal efficacy preincubated with cytostim for 72 hrs by ELISA relative to control; assay type: cell-based; details: filed as inverse agonist

half-life [1] | half-life [2] | EC50 [3] | EC50 [7] | Structure (SMILES) | other results
64 min | 72 min | 14 nM |  | CCS(=O)(=O)c1ccc(CNC(=O)c2ccc3c(c2)cc(Cc2ccc(F)cc2C(F)(F)F)n3C(C)C)cc1 | EC50 [4]: 17 nM
12 min | 13 min | 25 nM |  | CCc1ccccc1Cc1cc2cc(C(=O)NCc3ccc(S(=O)(=O)CC)cc3)ccc2n1C(C)C | Emax [5]: 79%; EC50 [6]: 2 nM
102 min | 139 min |  |  | CCS(=O)(=O)c1ccc(CNC(=O)c2ccc3c(c2)cc(Cc2ccc(Cl)cc2C(F)(F)F)n3C2CC2)cc1 | 
 |  |  | 683 nM | CCS(=O)(=O)c1ccc(CNC(=O)c2ccc3c(c2)cc(Cc2ccccc2)n3C(C)C)cc1 | 
12 min | 13 min |  |  | CCS(=O)(=O)c1ccc(CNC(=O)c2ccc3c(c2)cc(Cc2ccccc2OC)n3C(C)C)cc1 | 
 |  |  | 150 nM | CCS(=O)(=O)c1ccc(CNC(=O)c2ccc3c(c2)cc(Cc2ccc(C(F)(F)F)cc2)n3C(C)C)cc1 | EC50 [8]: 109 nM; Emax [9]: 109%
